# Experiments:
# [1] = Neutral Red toxicity in Vero 76 cells, 4 h pre-incubation (Zika-138); details: monkey
# [2] = in vitro; details: African green monkey
# [3] = test system: Zika Virus; test: Zika prevention, virus yield reduction (VYR), Huh7, 4 h pre-incubation (Zika-138); type: cell-based; details: for Virus Titer: 4 hr pre-incubation, Huh7 cells
# Protocol: An experiment was carried out as specified in Example 8. In a Zika Prevention Trial, MPA was pre-incubated with human cells 4 hours or 24 hours before Zika virus infection.
# [4] = NR toxicity in HG23 cells (17-14); type: cell-based; details: human, HG23 cells, NR (Tox)
# Source text: (§1) Secondary testing was done with human norovirus.
# [5] = test system: Rift Valley fever virus MP-12; test: microbe, parasite or virus in culture; type: cell-based; details: for EC50: Rift Valley fever virus, Vero76
# [6] = test system: Zika Virus; test: Zika virus CPE inhibition (Neutral Red), Vero 76, secondary (Zika-094); type: cell-based; details: Neutral Red (Cytopathic effect), MR766
# [7] = Neutral Red toxicity in Huh7 cells, 24 h pre-incubation (Zika-138); details: human
# [8] = Neutral Red toxicity in Huh7 cells, secondary (Zika-094); details: human
# [9] = test system: Zika Virus; test: Zika prevention, virus yield reduction (VYR), Vero 76, 4 h pre-incubation (Zika-138); type: cell-based; details: Zika virus, Visual (Virus yield reduction), pre-incubated 4 hours prior to infection, read-out: EC90
# [10] = test system: mouse norovirus (MNV-1); test: Mouse norovirus CPE inhibition (NR), RAW264.7 (17-09); type: cell-based; details: Norovirus
# [11] = Cell Titer-Glo toxicity in C-33A cells (HPV16-15); details: human
# [12] = test system: Powassan virus LB; test: microbe, parasite or virus in culture; type: cell-based; details: for EC50: Powassan virus, BHK
# [13] = test system: Zika Virus; test: Zika prevention, CPE inhibition (Neutral Red), Huh7, 24 h pre-incubation (Zika-138); type: cell-based; details: Zika virus, Huh-7, Neutral Red (Cytopathic effect), pre-incubated 24 hours prior to infection, read-out: EC50
# [14] = test system: Zika Virus; test: Zika prevention, CPE inhibition (Neutral Red), Vero 76, 24 h pre-incubation (Zika-138); type: cell-based; details: Zika virus, Neutral Red (Cytopathic effect), pre-incubated 24 hours prior to infection, read-out: EC50
# [15] = test system: Zika Virus; test: Zika prevention, virus yield reduction (VYR), Vero 76, 24 h pre-incubation (Zika-138); type: cell-based; details: Zika virus, Visual (Virus yield reduction), pre-incubated 24 hours prior to infection, read-out: EC90
# [16] = test system: Lassa fever virus Josiah; test: organism not typed; type: cell-based
# [17] = test system: Zika Virus; test: Zika virus CPE inhibition (Neutral Red), Huh7, secondary (Zika-094); type: cell-based
# [18] = RNA Hybridization toxicity in HG23 cells (16-21); type: cell-based; details: human, HG23 cells
# Source text: as §1
# [19] = Neutral Red toxicity in Huh7 cells, 4 h pre-incubation (Zika-138); details: human
# [20] = test system: Zika Virus; test: Zika prevention, CPE inhibition (Neutral Red), Huh7, 4 h pre-incubation (Zika-138); type: cell-based; details: Zika virus, Huh-7, Neutral Red (Cytopathic effect), pre-incubated 4 hours prior to infection, read-out: EC50
# [21] = test system: Respiratory syncytial virus A2; test: microbe, parasite or virus in culture; type: cell-based
# [22] = Neutral Red toxicity in Vero 76 cells, 24 h pre-incubation (Zika-138); details: monkey
# [23] = test system: Zika Virus; test: Zika prevention, CPE inhibition (Neutral Red), Vero 76, 4 h pre-incubation (Zika-138); type: cell-based; details: Zika virus, Neutral Red (Cytopathic effect), pre-incubated 4 hours prior to infection, read-out: EC50
# [24] = Toxicity in Vero 76 cells, primary screen (Zika-089); details: monkey
# [25] = in vitro; details: dog
# [26] = test system: Zika Virus; test: Zika virus cytopathic effect (CPE) inhibition, Vero 76, primary screen (Zika-089); type: cell-based; details: for EC50: Zika virus, MR766, Vero 76, primary
# [27] = test system: human norovirus (NV, GT1); test: Human norovirus replicon, RNA Hybridization, HG23, primary (16-21); type: cell-based
# Source text: as §1
# [28] = NR toxicity in RAW264.7 cells (17-09); details: mouse
# [29] = test system: Vero76; details: African green monkey
# [30] = test system: MDCK; details: Neutral Red (Toxicity)
# [31] = Toxicity in A549 cells (ADV-0172); type: cell-based; details: human, A549 cells
# [32] = test system: Zika Virus; test: Zika virus yield reduction (VYR), Vero 76, secondary (Zika-094); type: cell-based; details: Visual (Virus yield reduction), MR766
# [33] = test system: human norovirus (NV, GT1); test: Human norovirus replicon, qPCR, HG23, secondary (17-14); type: cell-based; details: Norovirus
# Source text: as §1
# [34] = in vitro; details: African green monkey; remark: listed apart in the source
# [35] = test system: Zika Virus; test: Zika virus yield reduction (VYR), Huh7, secondary (Zika-094); type: cell-based; details: Huh-7, Visual (Virus yield reduction), MR766
# [36] = Vero 76, Neutral Red (Cytopathic effect)
# [37] = Vero 76, Visual (Cytopathic effect)
structure (smiles),measurement,setting,value
"COc1c(C)c2c(c(O)c1C/C=C(\C)CCC(=O)O)C(=O)OC2 [EP1601, 6-(4-hydroxy-6-methoxy-7-methyl-3-oxo-1,3-dihydroisobenzofuran-5-yl)-4-methyl-hex-4-enoic acid]",CC50,[1],> 100 µg/mL
same,CC50,[2],> 100 µg/mL
same,Virus Titer,[3]; MPA 0.1 μg/ml,4.5 Log10 CCID50/0.1 ml
same,Virus Titer,[3]; MPA 1 μg/ml,4.5 Log10 CCID50/0.1 ml
same,Virus Titer,[3]; MPA 10 μg/ml,4.5 Log10 CCID50/0.1 ml
same,Virus Titer,[3]; MPA 32 μg/ml,4.5 Log10 CCID50/0.1 ml
same,Virus Titer,[3]; MPA 100 μg/ml,0.67 Log10 CCID50/0.1 ml
same,EC90,"[3]; Zika virus, Huh-7, Visual (Virus yield reduction), Huh7, pre-incubated 4 hours prior to infection, read-out: EC90",42.7 µg/mL
same,mitigation of infection by Zika virus,[3]; given 4 hours before the infection,strongly mitigated the infection
same,CC50,[4],64000 nM
same,activity against Rift Valley,[5],active
same,EC50,[5]; [36],4 µg/mL
same,EC50,[5]; [37],3.1 µg/mL
same,EC50,[6],0.14 µg/mL
same,CC50,[7],1.4 µg/mL
same,CC50,[8],1.6 µg/mL
same,EC90,[9],17.8 µg/mL
same,EC50,[10],123 nM
same,EC90,[10],384 nM
same,CC50,[11],> 150000 nM
same,activity against Powassan,[12],active
same,EC50,[12]; Neutral Red (Cytopathic effect),0.36 µg/mL
same,EC50,[12]; Visual (Cytopathic effect),0.32 µg/mL
same,EC50,[13],0.55 µg/mL
same,EC50,[14],8 µg/mL
same,EC90,[15],10 µg/mL
same,activity against Lassa Fever,[16],active
same,EC50,[16]; Vero,0.2 µg/mL
same,EC50,"[17]; Huh-7, Neutral Red (Cytopathic effect), MR766, Huh7, secondary",0.14 µg/mL
same,EC50,"[17]; Huh-7, Zika virus, 'one of our tests' (test not specified), read-out: EC50",0.049 µg/mL
same,CC50,[18],> 100000 nM
same,CC50,[19],> 100 µg/mL
same,EC50,[20],0.17 µg/mL
same,activity against Respiratory Syncytial Virus,[21],highly active
same,EC50,"[21]; human respiratory syncytial virus, MA104",< 0.1 µg/mL
same,CC50,[22],37 µg/mL
same,EC50,[23],> 100 µg/mL
same,CC50,"[24]; CC50, Neutral Red (Toxicity)",14 µg/mL
same,CC50,"[24]; CC50, Visual (Toxicity)",> 100 µg/mL
same,CC50,[25],> 100000 nM
same,EC50,[26]; [36],0.15 µg/mL
same,EC50,[26]; [37],< 0.1 µg/mL
same,activity against Zika Virus,"[26]; three in vitro tests (Zika-A, Zika-B, Zika-C)",active
same,EC50,"[27]; Norovirus, GT1, HG23",151 nM
same,EC90,"[27]; Norovirus, GT1, HG23",1300 nM
same,activity against Norovirus,[27]; three in vitro tests (human and mouse norovirus),active
same,CC50,[28],32000 nM
same,CC50,[29],17 µg/mL
same,CC50,[30],> 100000 nM
same,CC50,[31]; Neutral Red (Toxicity),12 µg/mL
same,CC50,[31]; Visual (Toxicity),15 µg/mL
same,EC90,[32],0.3 µg/mL
same,EC50,[33],219 nM
same,EC90,[33],1100 nM
same,CC50,[34],26 µg/mL
same,EC90,[35],0.088 µg/mL
